Source: BindingDB's records for doi:10.1021/acschembio.6b00782 (University of Michigan, 2017)

Columns and labels:
[1] = target: T1, Paired box protein Pax-2 [1-81] (Human, UniProt Q02962); experiment: Biolayer Interferometry Binding Assay
T1 construct: 1-81
Protocol: (§1) After biotinylation, the protein was bound to saturation to the biosensor of an Octet RED Multichannel platform (ForteBio). All binding and equilibration was done in PBS with 0.1% DMSO. For binding to the compound, sensors were incubated for 300s in EG1 at the following concentrations: 0.5, 1, 2, 4, 8, 16, 31, 62, 125, and 250 μM. Disassociation was then measured for 350 s in PBS to determine affinity constants. Kd is calculated from Kon and Koff.

[2] = target: T1, Paired box protein Pax-2 [1-81]; experiment: Biolayer Interferometry Binding Assay; remark: listed apart in the source
Protocol: as §1, with “steady state analysis.” for “Kon and Koff.”

T1 sequence (Q02962 1-81): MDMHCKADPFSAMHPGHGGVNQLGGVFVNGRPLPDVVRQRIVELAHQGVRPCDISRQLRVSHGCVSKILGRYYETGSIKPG

Kd [1]: 1.35 µM
Kd [2]: 1.5 µM
Compound: COc1ccccc1C(=O)Nc1ccc(C(=O)Nc2ccccc2C(=O)O)cc1 [EG1]
